Reference: patent publication US20060110385A1, “Means and methods for diagnosing and treating affective disorders” (Affectis Pharmaceuticals AG, priority 2003, published 2006)

Assays:
P2X7R [1] = target: T1, P2X7R (Mus musculus, UniProt Q9Z1M0); test: Calcium influx into HT-22 cells (Oregon green AM ester); assay type: cell-based; conditions: 100 mM oATP for 1 hour before BzATP
T1 construct: endogenous in cells; host or cells: HT-22 (immortalised mouse hippocampal cell line)
T1 sequence (Q9Z1M0 1-595): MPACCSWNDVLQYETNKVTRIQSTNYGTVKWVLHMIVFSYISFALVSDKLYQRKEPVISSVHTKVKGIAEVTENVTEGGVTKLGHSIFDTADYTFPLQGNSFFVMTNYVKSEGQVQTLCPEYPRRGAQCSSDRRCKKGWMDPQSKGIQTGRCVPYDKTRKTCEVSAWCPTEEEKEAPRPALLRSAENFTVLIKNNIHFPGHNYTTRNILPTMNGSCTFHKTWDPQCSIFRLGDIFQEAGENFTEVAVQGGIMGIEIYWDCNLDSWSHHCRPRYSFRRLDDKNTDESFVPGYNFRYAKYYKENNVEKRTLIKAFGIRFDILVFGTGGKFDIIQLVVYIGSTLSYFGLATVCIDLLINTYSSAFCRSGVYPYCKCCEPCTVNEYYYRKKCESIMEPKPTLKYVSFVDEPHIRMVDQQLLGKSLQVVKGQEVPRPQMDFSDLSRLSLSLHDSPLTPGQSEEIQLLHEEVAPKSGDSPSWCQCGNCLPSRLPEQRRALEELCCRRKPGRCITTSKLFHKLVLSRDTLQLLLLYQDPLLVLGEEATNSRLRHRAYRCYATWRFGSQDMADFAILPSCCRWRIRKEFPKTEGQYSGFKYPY
Source text: Since P2X7R is an ATP-gated ion channel which allows the entry of calcium and sodium ions into cells, a method for identifying P2X7R agonist was established by monitoring calcium influx into HT-22 cells. […] Calcium movement into the cells was visualised under a fluorescent microscope with a fluorescein filter (wavelength 492/517 nm). Oregon green AM ester is a fluorescent dye that binds to intracellular calcium.
Activation of P2X7R by the agonist was inhibited by oATP (FIG. 18) as illustrated by the absence of green fluorescence in the cells.

P2X7R [2] = target: T1, P2X7R; test: Entry of ethidium bromide into HT-22 cells; assay type: cell-based; conditions: pre-incubation 60 minutes with 100 μM o-ATP before agonist and ethidium bromide
Source text: Yet another method of measuring P2X7R activity involves the entry of ethidium bromide into P2X7R expressing cells. Activation of P2X7R by an agonist allows the entry of ethidium bromide which binds nuclear DNA and emits a fluorescence signal. Alternatively, the propidium dye YOPRO-1 can be substituted for ethidium bromide. An increase in fluorescence can be used as a measure of P2X7 receptor activation. Therefore, the assay can be used to test and quantify the effect of an agent or compound with agonist properties on P2X7R. In the present example, 10^3 HT-22 cells were seeded per well in a 96-well flat bottom microtitre plates and incubated at 37° C./5% CO2 in DMEM medium containing 10% FCS until the cells attached to the culture surface. […] The number of fluorescent cells which have integrated the ethidium bromide to the DNA can then be counted using a fluorescent microscope (Zeiss, Germany). […] Alternatively, ethidium bromide fluorescence can be measured using a Perkin-Elmer fluorescent plate reader (excitation 520 nm, emission 595 nm, slit widths: Ex 15 nm, Em 20 nm). From the readings obtained, a pIC50 figure can be calculated for each candidate agent or compound. […] The specificity of an agonist for P2X7R can be evaluated by pre-incubation of the cells for 60 minutes with 100 μM o-ATP before adding the agonist and ethidium bromide dye.

DBA/201a mice = test: Porsolt's forced swim test after intrahippocampal P2X7R antagonists; assay type: in vivo, mouse; conditions: 100 nM KN-62 or 10 μM oATP, 1 μl each side, dentate gyrus, 24 hours after injection
Source text: In the present example, the P2X7R antagonists were directly injected into the dentate gyrus region of the hippocampus. Briefly, three months old male mice were bilaterally implanted with guide cannulae (23 gauge, length 8 mm) by means of a stereotactic instrument (David Kopf Instruments). The coordinates, in relation to bregma, were −1.5 mm posterior, ±1.0 mm lateral, and −0.8 mm ventral. Mice were allowed to recover for 10 to 13 days after surgery. Following this recovery period, mice were injected with 1 μl vehicle solution (0.01% DMSO, Sigma), or 100 nM KN-62 (Sigma, prepared in 0.01% DMSO), or 10 μM oATP (Sigma, prepared in PBS) in each side of the brain over a period of 60 seconds. All injections were performed using a 9 mm-31 gauge needle inserted into the guide cannulae and connected via tubing to a 10 μl Hamilton syringe.
The behaviour of individual mice was assessed using the Porsolt's forced swim test 24 hours after injection of vehicle solution, KN-62, or oATP. A pre-exposure of 5 minutes to the test was performed 15-17 minutes after administration of vehicle, KN-62, or oATP. A description of the Porsolt's forced swim test is given in example 9. […] Observed results were verified statistically using one-way MANOVA test.

mice = test: Open field test (locomotor activity) after oATP; assay type: in vivo, mouse; conditions: 10 μM or 50 μM oATP, 15 minutes after injection, 30 minutes
Description: Locomotor activity in mice treated with control vehicle solution, 10 μM oATP, or 50 μM oATP was assessed 15 minutes after injection by placing individual animal in a dark-grey wooden box (30×30×40 cm). Locomotor activity was monitored for a period of 30 minutes using a video camera. Overall distance travelled by the animals during the testing period was then analysed by means of VideoMot2 computer software (TSE GmbH, Bad Homburg).

Nc1ncnc2c1ncn2[C@@H](C=O)O[C@@H](C=O)COP(=O)(O)OP(=O)(O)OP(=O)(O)O [oATP, Oxidized ATP]
activation of P2X7R by the agonist (calcium influx) after antagonist pre-treatment (P2X7R [1]): inhibited
number of fluorescent cells after antagonist pre-incubation (P2X7R [2]): reduction in the number of fluorescent cells
active escape attempts (time, frequency, latency of struggling) (DBA/201a mice): no changes
passive behaviour (time, frequency, latency of floating) (DBA/201a mice): no changes
locomotor activity (overall distance travelled) (mice): No difference in locomotor activity
